Patent publication US12384772B2, “Inhibitors” (VIVORYON THERAPEUTICS N.V., priority 2017, dated 2025)
Like-named read-outs stand apart in the source and are kept apart here.

Biological target: Glutaminyl cyclase (QC) (Homo sapiens (Human), UniProt Q16769)
Assay: Glutaminyl cyclase assay, determination of IC50 values and calculation of Ki values (H-Gln-AMC substrate, pGAP auxiliary enzyme; pH 8.0 or pH 6.0)
Type: biochemical
Experimental: 10 mM compound stock solutions were prepared in DMSO. For IC50 determination compound stocks were serially diluted (1:3) in DMSO.
All measurements were performed with an EnSpire Perkin Elmer multimode reader using glutaminyl-7-amino-4-methylcoumarin (H-Gin-AMC) as substrate and recombinant pyroglutamyl aminopeptidase (pGAP) as auxiliary enzyme. Reactions were carried out at ambient temperature in black 96-well half area microplates. Each sample consisted of 1 μl test compound solution or solvent (DMSO) and 49 μl QC appropriately diluted in assay buffer (50 mM Tris/HCl, pH 8.0 or 50 mM MES buffer, pH=6.0). After a 10 min preincubation at ambient temperature the enzyme reaction was started by adding 50 μl of Gln-AMC-substrate/pGAP mixture in assay buffer. Final substrate concentrations were 50 and 200 μM for measurement at pH 8.0 or 6.0, respectively. Release of flourogenic AMC were recorded at excitation/emission wavelengths of 380/460 nm. Initial velocity of the enzyme reaction was calculated by linear regression of the first 10 data points using the Enspire Manager software. Final evaluation and calculation of IC50s were performed using GraphPad Prism software.
Ki-values were calculated according to the following formula: Ki=IC50/(1+[S]/Km), where: […]

[1] = pH 6, read-out: hQC Ki [μM] pH6
[2] = pH 8, read-out: hQC Ki [μM] pH8

Sequence of Glutaminyl cyclase (QC) (Q16769 29-361): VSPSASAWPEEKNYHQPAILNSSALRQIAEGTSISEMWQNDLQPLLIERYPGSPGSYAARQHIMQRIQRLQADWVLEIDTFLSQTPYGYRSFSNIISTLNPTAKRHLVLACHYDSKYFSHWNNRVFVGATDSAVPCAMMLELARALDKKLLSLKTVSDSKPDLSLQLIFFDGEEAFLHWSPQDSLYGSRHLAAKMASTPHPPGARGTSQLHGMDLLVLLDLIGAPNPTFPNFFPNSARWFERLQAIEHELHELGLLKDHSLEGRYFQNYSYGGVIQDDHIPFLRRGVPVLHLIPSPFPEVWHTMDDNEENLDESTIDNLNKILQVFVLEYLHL

| Ki [1] | Ki [2] | Compound |
| --- | --- | --- |
| 0.13 µM | 0.42 µM | COc1ccc(-c2nccnc2NCc2ccc3[nH]cnc3c2)cc1OC [O12, N-(1H-1,3-benzodiazol-5-ylmethyl)-3-(3,4-dimethoxyphenyl)pyrazin-2-amine] |
| 8.84 µM | 11.5 µM | Cn1cnnc1SCCNS(=O)(=O)c1ccc(F)cc1 [G2, 4-fluoro-N-{2-[(4-methyl-4H-1,2,4-triazol-3-yl)sulfanyl]ethyl}benzene-1-sulfonamide] |
| 1.9 µM | 2.21 µM | COc1ccc(-c2nccnc2NCc2ccc3[nH]cnc3c2)cc1 [O9, N-(1H-1,3-benzodiazol-5-ylmethyl)-3-(4-methoxyphenyl)pyrazin-2-amine] |
| 4.89 µM | 6.83 µM | Fc1cccc(NCc2ccc3[nH]cnc3c2)c1-c1ccc(Cl)cc1 [O22, N-(1H-1,3-benzodiazol-5-ylmethyl)-2-(4-chlorophenyl)-3-fluoroaniline] |
|  | 18.3 µM | COc1ccc(-c2cncnc2NCc2ccc3[nH]cnc3c2)cc1 [O8, N-(1H-1,3-benzodiazol-5-ylmethyl)-5-(4-methoxyphenyl)pyrimidin-4-amine] |
| 5.81 µM | 9.41 µM | Fc1ccc(-c2c(F)cccc2NCc2ccc3[nH]cnc3c2)cc1 [O24, N-(1H-1,3-benzodiazol-5-ylmethyl)-3-fluoro-2-(4-fluorophenyl)aniline] |

More lines, now with the values behind:

| Compound | Ki [1] | Ki [2] |
| --- | --- | --- |
| COc1ccc(-c2ccccc2Nc2ccc(-c3nncn3C)cc2)cc1 [D3, N-[2-(4-methoxyphenyl)phenyl]-4-(4-methyl-4H-1,2,4-triazol-3-yl)aniline] | 0.99 µM | 1.69 µM |
| COc1ccc(-c2ccccc2Nc2ccc(-c3nnc(N)s3)cc2)cc1OC [Comp 561, 5-(4-{[2-(3,4-dimethoxyphenyl)phenyl]amino}phenyl)-1,3,4-thiadiazol-2-amine] | 0.42 µM | 1.09 µM |
| Cn1cnnc1-c1ccc(Nc2ccccc2-c2ccc(Oc3ccccc3)cc2)cc1 [D6, 4-(4-methyl-4H-1,2,4-triazol-3-yl)-N-[2-(4-phenoxyphenyl)phenyl]aniline] | 1.33 µM | 1.81 µM |
| Nc1nnc(-c2ccc(Nc3nccnc3-c3ccc(F)cc3)cc2)s1 [C9, N-[4-(5-amino-1,3,4-thiadiazol-2-yl)phenyl]-3-(4-fluorophenyl)pyrazin-2-amine] | 1.66 µM | 6.89 µM |
| Fc1ccc(-c2cccnc2NCc2ccc3[nH]cnc3c2)cc1 [Comp 1234, N-(1H-1,3-benzodiazol-5-ylmethyl)-3-(4-fluorophenyl)pyridin-2-amine] | 58.8 µM | 12.3 µM |
| Cn1cnnc1-c1ccc(Nc2cccnc2-c2ccc(F)cc2)cc1 [Comp 852, 2-(4-fluorophenyl)-N-[4-(4-methyl-4H-1,2,4-triazol-3-yl)phenyl]pyridin-3-amine] | 2.69 µM | 5.05 µM |
| Fc1ccc(-c2ncccc2NCc2ccc3[nH]cnc3c2)cc1 [Comp 1252, N-(1H-1,3-benzodiazol-5-ylmethyl)-2-(4-fluorophenyl)pyridin-3-amine] | 145 µM | 22 µM |
| COc1ccc(-c2cnccc2Nc2ccc(-c3nnc(N)s3)cc2)cc1OC [C7, N-[4-(5-amino-1,3,4-thiadiazol-2-yl)phenyl]-3-(3,4-dimethoxyphenyl)pyridin-4-amine] | 54.7 µM | 7.46 µM |
| COc1ccc(-c2cnccc2Nc2ccc(-c3nncn3C)cc2)cc1OC [D7, 3-(3,4-dimethoxyphenyl)-N-[4-(4-methyl-4H-1,2,4-triazol-3-yl)phenyl]pyridin-4-amine] |  | 10.1 µM |
| CC(C)Oc1ccc(-c2ccccc2Nc2ccc(-c3nnc(N)s3)cc2)cc1 [C12, 5-[4-({2-[4-{propan-2-yloxy)phenyl]phenyl}amino)phenyl]-1,3,4-thiadiazol-2-amine] | 1.51 µM | 3.27 µM |
